Measurements published in PubChem BioAssay (NCI).
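Test compounds were applied to cells in 96-well plates for 48 hours at 5 doses. GI50 marks 50% less growth. TGI is the concentration that stops growth completely.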

Tests used:
Test in all cases: DTP human tumour cell line panel, 48 h
SN12C renal = tested on: SN12C renal
MOLT-4 leukemia = tested on: MOLT-4 leukemia
A498 renal = tested on: A498 renal
SK-MEL-5 melanoma = tested on: SK-MEL-5 melanoma
OVCAR-4 ovarian = tested on: OVCAR-4 ovarian
M14 melanoma = tested on: M14 melanoma
SW-620 colon = tested on: SW-620 colon
SNB-75 CNS = tested on: SNB-75 CNS
T-47D breast = tested on: T-47D breast
MDA-MB-231 breast = tested on: MDA-MB-231 breast

SMILES | GI50 (SN12C renal) [µM] | TGI (SN12C renal) [µM] | GI50 (MOLT-4 leukemia) [µM] | TGI (MOLT-4 leukemia) [µM] | GI50 (A498 renal) [µM] | TGI (A498 renal) [µM] | GI50 (SK-MEL-5 melanoma) [µM] | TGI (SK-MEL-5 melanoma) [µM] | GI50 (OVCAR-4 ovarian) [µM] | TGI (OVCAR-4 ovarian) [µM] | GI50 (M14 melanoma) [µM] | TGI (M14 melanoma) [µM] | GI50 (SW-620 colon) [µM] | TGI (SW-620 colon) [µM] | TGI (SNB-75 CNS) [µM] | TGI (T-47D breast) [µM] | GI50 (T-47D breast) [µM] | GI50 (MDA-MB-231 breast) [µM] | TGI (MDA-MB-231 breast) [µM] | GI50 (SNB-75 CNS) [µM]
CC(=O)[CH-]C(=O)c1ccccc1.CC(=O)[CH-]C(=O)c1ccccc1.C[C@]12CCC(=O)C=C1CC[C@@H]1C2CC[C@@]2(C)C1CC[C@@H]2[O-].C[C@]12CCC(=O)C=C1CC[C@@H]1C2CC[C@@]2(C)C1CC[C@@H]2[O-].Cl.[Ti+4] (stereo partly drawn) | 20.8 | 70.6 | 35.3 | > 100 | 16.5 | 30.8 | 11.3 | 32 | 23.4 | > 100 | 15.9 | 41.8 | 17.5 | 43.7 | – | – | – | – | – | –
CS(=O)(=O)CC(=O)c1ccccc1 | – | > 100 | – | > 100 | – | > 100 | – | > 100 | – | > 100 | – | > 100 | – | > 100 | > 100 | > 100 | – | – | – | –
NC(N)=N/N=C/c1ccc(-c2ccc(-c3cc(Cl)cc(Cl)c3)s2)cc1 | 1.76 | 3.48 | 1.72 | 4.3 | 1.25 | 2.55 | 2.79 | 7.85 | 1.9 | 3.77 | 1.75 | 3.53 | 1.66 | 3.34 | – | 4.54 | 2.02 | 1.77 | 3.36 | –
OCc1c[te]c(-c2ccccc2)c1 | – | 78.7 | – | > 100 | – | > 100 | – | > 100 | – | > 100 | – | > 100 | – | > 100 | > 100 | – | – | – | – | –
CCNC(=O)O/N=C1\CCC2[C@@H]3CC=C4C[C@@H](OC5CCCCO5)CC[C@]4(C)C3CC[C@]12C (stereo partly drawn) | – | 6.07 | – | 3.87 | – | > 100 | – | > 100 | – | – | – | – | – | 6.04 | – | – | – | – | – | –
N/N=c1\c2ccccc2c2cc3c(cc12)/c(=N/N)c1ccccc13 | – | > 100 | – | > 100 | – | – | – | > 100 | – | > 100 | – | > 100 | – | > 100 | > 100 | – | – | – | – | –
CC1(C)[C@@H](OC(=O)CCC(=O)O)CC[C@]2(C)[C@H]3C(=O)C=C4[C@@H]5C[C@@](C)(C(=O)O)CC[C@]5(C)CC[C@@]4(C)[C@]3(C)CC[C@@H]12 | 51.9 | 105 | – | – | 49.2 | 68 | 56 | 86.8 | 64.6 | 168 | 58.4 | 129 | 59.2 | 126 | 83.5 | – | – | 78.8 | 171 | 55
C=C(C(=C)P(=S)(c1ccccc1)c1ccccc1)P(=S)(c1ccccc1)c1ccccc1 | – | > 100 | – | > 100 | – | > 100 | – | > 100 | – | > 100 | – | > 100 | – | > 100 | > 100 | – | – | – | – | –
CC#CC1C2CCCC1(CSc1ccccc1)NC(=O)O2 (stereo not drawn) | – | > 100 | – | > 100 | – | > 100 | – | > 100 | – | > 100 | – | > 100 | – | > 100 | > 100 | – | – | – | – | –
c1ccc2cc(C[n+]3ccn(CCCCCCCCCCn4cc[n+](Cc5ccc6ccccc6c5)c4)c3)ccc2c1 | – | – | 1.36 | 3 | 0.0129 | 2.77 | – | – | 0.988 | 9.88 | 2.76 | 15.7 | 1.57 | 11.2 | – | 4.74 | 0.491 | 1.33 | 5.3 | –
Clc1cc(Cl)cc(N2N=C(c3cccc(Nc4ccncc4)c3)CC2c2ccc3c(c2)OCO3)c1 (stereo not drawn) | 1.66 | 3.13 | 1.88 | 4.49 | 1.34 | 4.54 | 1.77 | 3.21 | 1.65 | 3.18 | 1.75 | 3.37 | 1.67 | 3.29 | 2.99 | – | – | 1.37 | 2.72 | 1.38
COc1ccc2nc3cc(Cl)ccc3c(Sc3ccc([N+](=O)[O-])cc3)c2c1 | > 100 | > 100 | > 100 | > 100 | > 100 | > 100 | > 100 | > 100 | > 100 | > 100 | > 100 | > 100 | > 100 | > 100 | > 100 | – | – | – | – | > 10
N#C[Se]CCCNS(=O)(=O)C1CC2C=CC1C2 (stereo not drawn) | 0.494 | 1.44 | 0.409 | 22.6 | 0.652 | 2.09 | 1.41 | 2.95 | 1.48 | 8.57 | 0.231 | 0.655 | 1.79 | 5.56 | – | 8.28 | 2.55 | 1.23 | 3.55 | –
CN1CCN(C)C12C=CC=CC21CC1 | – | > 100 | – | > 100 | – | > 100 | – | > 100 | – | > 100 | – | > 100 | – | > 100 | > 100 | – | – | – | – | –
Cc1ccccc1-n1c2nc(=O)n(C)c(=O)c-2nc2ccccc21 | – | 26.6 | – | 39.7 | – | 79.1 | – | 23.1 | – | 26.6 | – | 25.4 | – | 28.1 | 39.9 | – | – | – | – | –
COc1ccccc1NC(=O)c1nc2ccc([N+](=O)[O-])cc2nc1C | – | > 100 | – | > 100 | – | > 100 | – | > 100 | – | > 100 | – | > 100 | – | > 100 | > 100 | – | – | – | – | –
Cc1ccc2c(c1)S(=O)(=O)c1ccc3ccccc3c1N2 | – | > 100 | – | > 100 | – | > 100 | – | > 100 | – | > 100 | – | > 100 | – | > 100 | – | > 100 | – | – | > 100 | –
NCCNCc1c2ccccc2c(CNCCN)c2ccccc12 | – | 58.9 | – | 30.9 | – | 75.3 | – | 90.3 | – | – | – | 35.2 | – | > 100 | – | – | – | – | – | –
